In patent US9642874B2, “Compositions of selenoorganic compounds and methods of use thereof” (Alltech, Inc., priority 2014, dated 2017):

Key:
Foxo4 = experiment: Western blot of pFoxo4T28 in primary mouse hepatocytes; assay type: cell-based; conditions: 100 nM insulin, 6 hours
Method: The overnight-acclimated hepatocytes were washed twice with PBS (to remove any residual FBS and other additives in the TRL hepatocyte maintenance medium, pretreated with control (water) or selenium Compounds CDE (150 or 300 ppb of each selenium compound) in DMEM/F12 media supplemented with 10% fetal bovine serum (FBS) for 24 hr. These cells were then washed twice with PBS and incubated with the same dose of selenium Compounds CDE (150 or 300 ppb) in the presence or absence of insulin (10 or 100 nM, Sigma), 0.1 mM 8-CPT (Sigma) or 0.5 μM Dex (Sigma) in serum-free and glucose-free DMEM media (Invitrogen) supplemented with 20 mM lactose (Sigma) and 2 mM pyruvate (Sigma) and 15 mM HEPES (Sigma) for another 6 hours. […]
After the above described treatments, primary mouse hepatocytes were rinsed with ice-cold PBS and lysed in the ice-cold RIPA buffer containing complete proteinase and phosphatase inhibitors (Thermo-Fisher Scientific, Waltham, Mass.) on ice for 30 min Cell lysates were collected using a cell scraper and transfer pipette and then centrifuged at 12000×g for 30 min at 4° C. to remove the DNA pellet and obtain the protein extract. Protein levels in the supernatant of these cell lysates were determined using the Pierce Micro-BCA protein assay kit (Thermo Scientific-Piece Biotechnology, Rockford, Ill.) according to the manufacturer's protocol. […]

Igf1r = Igf1r mRNA expression (QRT-PCR) in AML-12 cells; assay type: cell-based, mouse; conditions: insulin alone, 6 hours, without 8-CPT/Dex
Method: For RNA analysis of insulin receptor (Insr), insulin like growth factor receptor (Igf1r), and Glucose-6-Phosphatase (G6pc), AML-12 cells were amplified in ITS, Dex and FBS-containing DMEM/F12 media, and cultured on 24-well (6.7×10^4 cells/well) plates in 10% FBS ITS-free DMEM/F12 media with or without Dex overnight. These cells were treated with control (water) or various compounds (diluted in 10% FBS ITS-free DMEM/F12 media with or without Dex) for 6 hours, 24 hours, or 48 hours.
In some experiments, the AML-12 cells were washed twice with PBS after the compound treatments for 24 hours, and then incubated with selenium compounds (150 or 300 ppb of each compound) in the presence or absence of insulin (10 or 100 nM), 0.1 mM 8-CPT (Sigma), or 0.5 μM Dex in serum-free, glucose/phenol red-free DMEM media supplemented with 20 mM lactose and 2 mM pyruvate, and 15 mM HEPES (glucose-production media) for another 6 hours. After treatments, cell media were collected and subjected to glucose assays using Abcam glucose assay kit according to the manufacturer's protocol. […]
Total RNA from these cells was isolated using Trizol (Invitrogen) according to the manufacturer's protocol, and then incubated with DNase I to remove any potential contaminated genomic DNA. […] Three to six samples were analyzed in each treatment group. […]

insulin: insulin (10 or 100 nM, Sigma) used as comparator and cotreatment
pFoxo4T28 levels (Foxo4): barely detectable | Igf1r expression (Igf1r): did not increase
